Source: the CheMixHub viscosity set

Test: xn = mol fraction of the nth substance listed

CCCCNCCCC + CC(C)(C)O
viscosity [mPa·s]
Details	298.15 K	303.15 K	308.15 K	313.15 K	318.15 K	323.15 K
101 kPa, x2 = 0.1	–	0.8289	0.7649	0.7079	0.658	0.6131
101 kPa, x2 = 0.2	–	0.8953	0.8203	0.7551	0.6972	0.6454
101 kPa, x2 = 0.3	–	0.976	0.8884	0.8111	0.7456	0.6862
101 kPa, x2 = 0.4	–	1.082	0.9747	0.8862	0.8031	0.7331
101 kPa, x2 = 0.4999	–	1.217	1.085	0.9769	0.8802	0.7968
101 kPa, x2 = 0.55	–	1.302	1.153	1.027	0.92	0.829
101 kPa, x2 = 0.6001	–	1.391	1.228	1.087	0.9714	0.8676
101 kPa, x2 = 0.65	–	1.513	1.32	1.16	1.027	0.9126
101 kPa, x2 = 0.7	–	1.647	1.423	1.24	1.089	0.9614
101 kPa, x2 = 0.8001	–	2.011	1.696	1.441	1.245	1.08
101 kPa, x2 = 0.9	–	2.559	2.087	1.71	1.45	1.232
101 kPa, x2 = 0.95	–	2.937	2.352	1.91	1.583	1.333
101.33 kPa, x1 = 0.0672	3.548	–	2.271	–	1.565	–
101.33 kPa, x1 = 0.0989	3.272	–	2.133	–	1.497	–
101.33 kPa, x1 = 0.1393	2.953	–	1.97	–	1.409	–
101.33 kPa, x1 = 0.1939	2.586	–	1.782	–	1.303	–
101.33 kPa, x1 = 0.2674	2.165	–	1.559	–	1.172	–
101.33 kPa, x1 = 0.3319	1.893	–	1.402	–	1.077	–
101.33 kPa, x1 = 0.405	1.643	–	1.25	–	0.984	–
101.33 kPa, x1 = 0.4915	1.419	–	1.109	–	0.895	–
101.33 kPa, x1 = 0.5791	1.248	–	0.999	–	0.816	–
101.33 kPa, x1 = 0.6466	1.143	–	0.93	–	0.769	–
101.33 kPa, x1 = 0.6907	1.086	–	0.89	–	0.745	–
101.33 kPa, x1 = 0.776	0.994	–	0.825	–	0.7	–
101.33 kPa, x1 = 0.8387	0.932	–	0.783	–	0.671	–
101.33 kPa, x1 = 0.8867	0.889	–	0.752	–	0.654	–
101.33 kPa, x1 = 0.9129	0.872	–	0.742	–	0.642	–
101.33 kPa, x1 = 0.9471	0.845	–	0.724	–	0.629	–
